{"source": "patent US7737136B2", "about": "(N.V. Organon, priority 2002, dated 2010)", "data": [{"target": "T1, human progesterone receptor-B (Homo sapiens, UniProt P06401)", "T1 construct": "expressed in transfected cells; host or cells: Chinese hamster ovary (CHO) cells, line CHO-PRB-pMMTV-LUC 1E2-A2", "T1 sequence (P06401 1-933)": "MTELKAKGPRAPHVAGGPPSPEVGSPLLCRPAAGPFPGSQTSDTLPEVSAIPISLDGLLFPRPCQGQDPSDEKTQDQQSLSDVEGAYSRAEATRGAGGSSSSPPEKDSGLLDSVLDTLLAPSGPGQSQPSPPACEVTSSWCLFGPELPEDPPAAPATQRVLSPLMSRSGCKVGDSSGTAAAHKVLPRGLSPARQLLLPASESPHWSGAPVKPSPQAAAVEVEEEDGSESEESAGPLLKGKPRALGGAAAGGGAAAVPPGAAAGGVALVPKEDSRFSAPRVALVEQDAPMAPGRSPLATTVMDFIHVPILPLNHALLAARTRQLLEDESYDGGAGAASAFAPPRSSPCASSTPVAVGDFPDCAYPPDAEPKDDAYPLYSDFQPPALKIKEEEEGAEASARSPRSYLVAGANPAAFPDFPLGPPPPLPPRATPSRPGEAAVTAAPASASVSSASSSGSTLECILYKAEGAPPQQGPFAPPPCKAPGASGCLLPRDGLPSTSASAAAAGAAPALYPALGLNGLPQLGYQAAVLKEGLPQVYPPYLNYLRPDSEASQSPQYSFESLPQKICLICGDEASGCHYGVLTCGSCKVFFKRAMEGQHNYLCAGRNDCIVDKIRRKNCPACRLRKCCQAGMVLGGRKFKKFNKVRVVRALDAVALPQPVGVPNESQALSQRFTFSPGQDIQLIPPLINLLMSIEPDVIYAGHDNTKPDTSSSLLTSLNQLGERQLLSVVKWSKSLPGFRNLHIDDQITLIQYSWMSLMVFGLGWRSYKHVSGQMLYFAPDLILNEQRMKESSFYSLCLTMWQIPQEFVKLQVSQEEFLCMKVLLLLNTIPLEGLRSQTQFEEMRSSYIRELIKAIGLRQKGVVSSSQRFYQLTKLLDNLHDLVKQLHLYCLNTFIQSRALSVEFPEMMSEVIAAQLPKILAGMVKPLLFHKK", "assay": "Progesterone receptor-B transactivation assay, progestagenic (agonist) activity, CHO-PRB-pMMTV-LUC 1E2-A2 cells", "assay_type": "cell-based", "conditions": "not given", "method": "(§1) The (anti-)progestagenic activity of a compound of the invention (EC 50 and intrinsic activity) was determined in an in vitro bioassay of Chinese hamster ovary (CHO) cells stably transfected with the human progesterone receptor-B expression plasmid and with a reporter plasmid in which the MMTV-promoter is linked to the luciferase reporter gene. […] The cells were cultured with charcoal-treated supplemented defined bovine calf serum from Hyclone (Utah, USA) in Dulbecco's Modified Eagles Medium/Nutrient Mixture F-12 (DMEM/HAM F12 in ratio 1:1) from Gibco (Paisley, UK).", "units": {"EC50": "nM"}, "values": [{"smiles": "N[C@H]1CCCN2c3cc(F)ccc3Oc3ccccc3[C@H]12", "note": "(relative stereo) [Example 1, trans-7-Fluoro-2,3,4,14b-tetrahydro-1H-dibenzo[b,f]pyrido[1,2-d][1,4]oxazepine-1-amine]", "EC50": "100 to 10000"}, {"smiles": "O=C(CF)N[C@H]1CCCN2c3cc(Cl)ccc3Oc3ccccc3[C@H]12", "note": "(relative stereo) [Example 11, trans-N-(7-Chloro-2,3,4,14b-tetrahydro-1H-dibenzo[b,f]pyrido[1,2-d][1,4]oxazepin-1-yl)-2-fluoroacetamide]", "EC50": "10 to 100"}, {"smiles": "CCCN[C@H]1CCCN2c3cc(Cl)ccc3Oc3ccccc3[C@H]12", "note": "(relative stereo) [Example 37, trans-N-Propyl-7-chloro-2,3,4,14b-tetrahydro-1H-dibenzo[b,f]pyrido[1,2-d][1,4]oxazepine-1-amine]", "EC50": "100 to 10000"}]}, {"target": "T1, human progesterone receptor-B", "assay": "Progesterone receptor-B transactivation assay, progestagenic (agonist) activity, CHO-PRB-pMMTV-LUC 1E2-A2 cells", "assay_type": "cell-based", "conditions": "CHO cells stably transfected with human progesterone receptor-B and MMTV-luciferase reporter; read-out: Progestagenic activity EC50", "method": "as §1", "units": {"EC50": "nM"}, "values": [{"smiles": "N[C@H]1CCCN2c3cc(Cl)ccc3Oc3ccccc3[C@H]12", "note": "(relative stereo) [Example 3, trans-7-Chloro-2,3,4,14b-tetrahydro-1H-dibenzo[b,f]pyrido[1,2-d][1,4]oxazepine-1-amine]", "EC50": "100 to 10000"}, {"smiles": "O=C(N[C@H]1CCCN2c3cc(Cl)ccc3Sc3ccccc3[C@H]12)C(F)(F)F", "note": "(relative stereo) [Example 6, trans-2,2,2-Trifluoro-N-(7-chloro-2,3,4,14b-tetrahydro-1H-dibenzo[b,f]pyrido[1,2-d][1,4]thiazepin-1-yl)acetamide]", "EC50": "< 10"}, {"smiles": "NCC(=O)N[C@H]1CCCN2c3cc(Cl)ccc3Oc3ccccc3[C@H]12", "note": "(relative stereo) [Example 16, trans-2-Amino-N-(7-chloro-2,3,4,14b-tetrahydro-1H-dibenzo[b,f]pyrido[1,2-d][1,4]oxazepin-1-yl)acetamide]", "EC50": "100 to 10000"}, {"smiles": "S=CN[C@H]1CCCN2c3cc(Cl)ccc3Oc3ccccc3[C@H]12", "note": "(relative stereo) [Example 18, trans-N-(7-Chloro-2,3,4,14b-tetrahydro-1H-dibenzo[b,f]pyrido[1,2-d][1,4]oxazepin-1-yl)methanethioamide]", "EC50": "100 to 10000"}, {"smiles": "FC(F)(F)C(=S)N[C@H]1CCCN2c3cc(Cl)ccc3Oc3ccccc3[C@H]12", "note": "(relative stereo) [Example 19]", "EC50": "< 10"}, {"smiles": "FC(F)C(=S)N[C@H]1CCCN2c3cc(Cl)ccc3Oc3ccccc3[C@H]12", "note": "(relative stereo) [Example 23]", "EC50": "< 10"}, {"smiles": "FC(F)(F)C(=S)N[C@H]1CCCN2c3ccccc3Oc3ccccc3[C@H]12", "note": "(relative stereo) [Example 25]", "EC50": "< 10"}, {"smiles": "FC(F)(F)C(=S)N[C@H]1CCCN2c3c(ccc(Cl)c3Cl)Oc3ccccc3[C@H]12", "note": "(relative stereo) [Example 26]", "EC50": "< 10"}, {"smiles": "NCC(=S)N[C@H]1CCCN2c3cc(Cl)ccc3Oc3ccccc3[C@H]12", "note": "(relative stereo) [Example 27]", "EC50": "100 to 10000"}, {"smiles": "CN(C(=O)C(F)(F)F)[C@H]1CCCN2c3cc(Cl)ccc3Oc3ccccc3[C@H]12", "note": "(relative stereo) [Example 28, trans-N-(7-Chloro-2,3,4,14b-tetrahydro-1H-dibenzo[b,f]pyrido[1,2-d][1,4]oxazepin-1-yl)-2,2,2-trifluoro-N-methylacetamide]", "EC50": "100 to 10000"}, {"smiles": "O=C(N[C@H]1CCCN2c3cc(Cl)ccc3Oc3ccccc3[C@H]12)OCCl", "note": "(relative stereo) [Example 30, Trans-(7-Chloro-2,3,4,14b-tetrahydro-1H-dibenzo[b,f]pyrido[1,2-d][1,4]oxazepin-1-yl)carbamic Acid Chloromethyl Ester]", "EC50": "100 to 10000"}, {"smiles": "CC(C)CN[C@H]1CCCN2c3cc(Cl)ccc3Oc3ccccc3[C@H]12", "note": "(relative stereo) [Example 36, trans-N-(2-Methylpropyl)-7-chloro-2,3,4,14b-tetrahydro-1H-dibenzo[b,f]pyrido[1,2-d][1,4]oxazepine-1-amine]", "EC50": "100 to 10000"}, {"smiles": "O=C(N[C@H]1CCCN2c3c(ccc(Cl)c3Cl)Oc3ccccc3[C@H]12)C(F)(F)F", "note": "(relative stereo) [Example 38B, trans-N-(6,7-Dichloro-2,3,4,14b-tetrahydro-1H-dibenzo[b,f]pyrido[1,2-d][1,4]oxazepin-1-yl)-2,2,2-trifluoroacetamide]", "EC50": "< 10"}, {"smiles": "O=C(N[C@H]1CCCN2c3c(Cl)cccc3Oc3ccccc3[C@H]12)C(F)(F)F", "note": "(relative stereo) [Example 42B]", "EC50": "100 to 10000"}, {"smiles": "CS(=O)(=O)N(c1cc2c(cc1Cl)N1CCC[C@H](NC(=O)C(F)(F)F)[C@H]1c1ccccc1O2)S(C)(=O)=O", "note": "(relative stereo) [Example 44, trans-N-(7-Chloro-2,3,4,14b-tetrahydro-8-[bis(methylsulfonyl)amino]-1H-dibenzo[b,f]pyrido[1,2-d][1,4]oxazepin-1-yl)-2,2,2-trifluoroacetamide]", "EC50": "100 to 10000"}, {"smiles": "O=C(N[C@H]1CCCN2c3cc(Cl)c(NS(=O)(=O)c4ccccc4)cc3Oc3ccccc3[C@H]12)C(F)(F)F", "note": "(relative stereo) [Example 45, trans-N-(7-Chloro-2,3,4,14b-tetrahydro-8-[(phenylsulfonyl)amino]-1H-dibenzo[b,f]pyrido[1,2-d][1,4]oxazepin-1-yl)-2,2,2-trifluoroacetamide]", "EC50": "10 to 100"}, {"smiles": "CC(C)(C)OC(=O)Nc1cc2c(cc1Cl)N1CCC[C@H](NC(=O)C(F)(F)F)[C@H]1c1ccccc1O2", "note": "(relative stereo) [Example 46, trans-N-(7-Chloro-2,3,4,14b-tetrahydro-1-(2,2,2-trifluoroacetylamino)1H-dibenzo[b,f]pyrido[1,2-d][1,4]oxazepin-8-yl)carbamic Acid 1,1-dimethylethyl Ester]", "EC50": "10 to 100"}, {"smiles": "CC(=O)N[C@H]1CCCN2c3c(ccc(Cl)c3Cl)Oc3ccccc3[C@H]12", "note": "(relative stereo) [Example 47, trans-N-(6,7-Dichloro-2,3,4,14b-tetrahydro-1H-dibenzo[b,f]pyrido[1,2-d][1,4]oxazepin-1-yl)acetamide]", "EC50": "< 10"}, {"smiles": "O=C(N[C@H]1CCCN2c3c(Br)cccc3Oc3ccccc3[C@H]12)C(F)(F)F", "note": "(relative stereo) [Example 51, trans-N-(6-Bromo-2,3,4,14b-tetrahydro-1H-dibenzo[b,f]pyrido[1,2-d][1,4]oxazepin-1-yl)-2,2,2-trifluoroacetamide]", "EC50": "< 10"}, {"smiles": "CC(=O)c1cccc2c1N1CCC[C@H](NC(=O)C(F)(F)F)[C@H]1c1ccccc1O2", "note": "(relative stereo) [Example 52, trans-N-(6-Acetyl-2,3,4,14b-tetrahydro-1H-dibenzo[b,f]pyrido[1,2-d][1,4]oxazepin-1-yl)-2,2,2-trifluoroacetamide]", "EC50": "< 10"}, {"smiles": "N#Cc1cccc2c1N1CCC[C@H](NC(=O)C(F)(F)F)[C@H]1c1ccccc1O2", "note": "(relative stereo) [Example 53, trans-2,3,4,14b-Tetrahydro-1-[(trifluoroacetyl)amino]-1H-dibenzo[b,f]pyrido[1,2-d][1,4]oxazepine-6-carbonitrile]", "EC50": "< 10"}, {"smiles": "C=Cc1cccc2c1N1CCC[C@H](NC(=O)C(F)(F)F)[C@H]1c1ccccc1O2", "note": "(relative stereo) [Example 54, trans-N-(6-Ethenyl-2,3,4,14b-tetrahydro-1H-dibenzo[b,f]pyrido[1,2-d][1,4]oxazepin-1-yl)-2,2,2-trifluoroacetamide]", "EC50": "< 10"}, {"smiles": "COc1cccc2c1N1CCC[C@H](NC(=O)C(F)(F)F)[C@H]1c1ccccc1O2", "note": "(relative stereo) [Example 55, trans-N-(2,3,4,14b-Tetrahydro-6-methoxy-1H-dibenzo[b,f]pyrido[1,2-d][1,4]oxazepin-1-yl)-2,2,2-trifluoroacetamide]", "EC50": "10 to 100"}]}]}
